Laboratory results from article PMC7578299, “The antiviral effects of baloxavir marboxil against influenza A virus infection in ferrets” (Influenza and Other Respiratory Viruses, 2020).

Legend:
[1] = test system: influenza A/Kadoma/3/2006 strain; conditions: A/Kadoma/3/2006, yield reduction assay, cited from earlier work
[2] = Simulated plasma concentration of BXA (non-parametric superposition, Phoenix WinNonlin); parameters: species or system ferret; conditions: for terminal elimination half-life extrapolated from mean plasma concentrations between 6 and 24 hours: four ferrets; for Ratio of BXA concentration to EC90: EC90 0.42 ng/mL; for Ratio of BXA concentration to Target concentration: target 6.85 ng/mL
From the text: Plasma concentrations of BXA after dosing of BXM twice daily were estimated using the non‐parametric superposition function in Phoenix WinNonlin software (https://onlinehelp.certara.com/phoenix/8.2/topics/nonparasuper.htm) based on the mean plasma concentrations of BXA following single‐dose administration of BXM. Dosing type was used as “Variable.” The computation method used for interpolation and extrapolation of untransformed data was selected as logarithm (Log).

[3] = two doses BXM 10 mg/kg, 24 hours after first dosing
[4] = two doses BXM 10 mg/kg, 48 hours after first dosing
[5] = two doses BXM 30 mg/kg, 24 hours after first dosing
[6] = two doses BXM 30 mg/kg, 48 hours after first dosing

## O=C1c2c(O)c(=O)ccn2N([C@@H]2c3ccccc3SCc3c2ccc(F)c3F)[C@@H]2COCCN12 [BXA, baloxavir acid]
[1]
  90% effective concentration (EC90): 0.42 ng/mL
[1]; read-out: 90% effective concentration (EC90)
  EC90: 0.88 nM
[2]; BXM 10 mg/kg
  terminal elimination half-life extrapolated from mean plasma concentrations between 6 and 24 hours: 6.57 h
[2]; BXM 30 mg/kg
  terminal elimination half-life extrapolated from mean plasma concentrations between 6 and 24 hours: 4.08 h
[2]; BXM single dose 10 mg/kg, 2.5 h
  Simulated plasma concentration: 48.5 ng/mL
[2]; BXM single dose 10 mg/kg, 3 h
  Simulated plasma concentration: 42.6 ng/mL
[2]; BXM single dose 10 mg/kg, 3.5 h
  Simulated plasma concentration: 37.5 ng/mL
[2]; BXM single dose 10 mg/kg, 4 h
  Simulated plasma concentration: 33.0 ng/mL
[2]; BXM single dose 10 mg/kg, 4.5 h
  Simulated plasma concentration: 29.1 ng/mL
[2]; BXM single dose 10 mg/kg, 5 h
  Simulated plasma concentration: 25.7 ng/mL
[2]; BXM single dose 10 mg/kg, 5.5 h
  Simulated plasma concentration: 22.7 ng/mL
[2]; BXM single dose 10 mg/kg, 6 h
  Simulated plasma concentration: 20.0 ng/mL
[2]; BXM single dose 10 mg/kg, 6.5 h
  Simulated plasma concentration: 19.1 ng/mL
[2]; BXM single dose 10 mg/kg, 7 h
  Simulated plasma concentration: 18.3 ng/mL
[2]; BXM single dose 10 mg/kg, 7.5 h
  Simulated plasma concentration: 17.5 ng/mL
[2]; BXM single dose 10 mg/kg, 8 h
  Simulated plasma concentration: 16.7 ng/mL
[2]; BXM single dose 10 mg/kg, 8.5 h
  Simulated plasma concentration: 15.8 ng/mL
[2]; BXM single dose 10 mg/kg, 9 h
  Simulated plasma concentration: 15.0 ng/mL
[2]; BXM single dose 10 mg/kg, 9.5 h
  Simulated plasma concentration: 14.2 ng/mL
[2]; BXM single dose 10 mg/kg, 10 h
  Simulated plasma concentration: 13.5 ng/mL
[2]; BXM single dose 10 mg/kg, 10.5 h
  Simulated plasma concentration: 12.8 ng/mL
[2]; BXM single dose 10 mg/kg, 11 h
  Simulated plasma concentration: 12.1 ng/mL
[2]; BXM single dose 10 mg/kg, 11.5 h
  Simulated plasma concentration: 11.5 ng/mL
[2]; BXM single dose 10 mg/kg, 12 h
  Simulated plasma concentration: 10.9 ng/mL
[2]; BXM single dose 10 mg/kg, 12.5 h
  Simulated plasma concentration: 10.3 ng/mL
[2]; BXM single dose 10 mg/kg, 13 h
  Simulated plasma concentration: 9.80 ng/mL
[2]; BXM single dose 10 mg/kg, 13.5 h
  Simulated plasma concentration: 9.29 ng/mL
[2]; BXM single dose 10 mg/kg, 47.5 h
  Simulated plasma concentration: 0.254 ng/mL
[2]; BXM single dose 10 mg/kg, 48 h
  Simulated plasma concentration: 0.241 ng/mL
[2]; BXM single dose 30 mg/kg, 2.5 h
  Simulated plasma concentration: 316 ng/mL
[2]; BXM single dose 30 mg/kg, 3 h
  Simulated plasma concentration: 292 ng/mL
[2]; BXM single dose 30 mg/kg, 3.5 h
  Simulated plasma concentration: 269 ng/mL
[2]; BXM single dose 30 mg/kg, 4 h
  Simulated plasma concentration: 248 ng/mL
[2]; BXM single dose 30 mg/kg, 4.5 h
  Simulated plasma concentration: 235.6 ng/mL
[2]; BXM single dose 30 mg/kg, 5 h
  Simulated plasma concentration: 223.8 ng/mL
[2]; BXM single dose 30 mg/kg, 5.5 h
  Simulated plasma concentration: 212.6 ng/mL
[2]; BXM single dose 30 mg/kg, 6 h
  Simulated plasma concentration: 202 ng/mL
[2]; BXM single dose 30 mg/kg, 6.5 h
  Simulated plasma concentration: 190.3 ng/mL
[2]; BXM single dose 30 mg/kg, 7 h
  Simulated plasma concentration: 179.2 ng/mL
[2]; BXM single dose 30 mg/kg, 7.5 h
  Simulated plasma concentration: 168.8 ng/mL
[2]; BXM single dose 30 mg/kg, 8 h
  Simulated plasma concentration: 159 ng/mL
[2]; BXM single dose 30 mg/kg, 8.5 h
  Simulated plasma concentration: 146 ng/mL
[2]; BXM single dose 30 mg/kg, 9 h
  Simulated plasma concentration: 134 ng/mL
[2]; BXM single dose 30 mg/kg, 9.5 h
  Simulated plasma concentration: 123 ng/mL
[2]; BXM single dose 30 mg/kg, 10 h
  Simulated plasma concentration: 112 ng/mL
[2]; BXM single dose 30 mg/kg, 10.5 h
  Simulated plasma concentration: 103 ng/mL
[2]; BXM single dose 30 mg/kg, 11 h
  Simulated plasma concentration: 94.5 ng/mL
[2]; BXM single dose 30 mg/kg, 11.5 h
  Simulated plasma concentration: 86.6 ng/mL
[2]; BXM single dose 30 mg/kg, 12 h
  Simulated plasma concentration: 79.4 ng/mL
[2]; BXM single dose 30 mg/kg, 12.5 h
  Simulated plasma concentration: 72.8 ng/mL
[2]; BXM single dose 30 mg/kg, 13 h
  Simulated plasma concentration: 66.8 ng/mL
[2]; BXM single dose 30 mg/kg, 13.5 h
  Simulated plasma concentration: 61.2 ng/mL
[2]; BXM single dose 30 mg/kg, 47.5 h
  Simulated plasma concentration: 0.184 ng/mL
[2]; BXM single dose 30 mg/kg, 48 h
  Simulated plasma concentration: 0.169 ng/mL
[2]; BXM two doses 10 mg/kg (0 and 12 h), 2.5 h
  Simulated plasma concentration: 48.5 ng/mL
[2]; BXM two doses 10 mg/kg (0 and 12 h), 3 h
  Simulated plasma concentration: 42.6 ng/mL
[2]; BXM two doses 10 mg/kg (0 and 12 h), 3.5 h
  Simulated plasma concentration: 37.5 ng/mL
[2]; BXM two doses 10 mg/kg (0 and 12 h), 4 h
  Simulated plasma concentration: 33.0 ng/mL
[2]; BXM two doses 10 mg/kg (0 and 12 h), 4.5 h
  Simulated plasma concentration: 29.1 ng/mL
[2]; BXM two doses 10 mg/kg (0 and 12 h), 5 h
  Simulated plasma concentration: 25.7 ng/mL
[2]; BXM two doses 10 mg/kg (0 and 12 h), 5.5 h
  Simulated plasma concentration: 22.7 ng/mL
[2]; BXM two doses 10 mg/kg (0 and 12 h), 6 h
  Simulated plasma concentration: 20.0 ng/mL
[2]; BXM two doses 10 mg/kg (0 and 12 h), 6.5 h
  Simulated plasma concentration: 19.1 ng/mL
[2]; BXM two doses 10 mg/kg (0 and 12 h), 7 h
  Simulated plasma concentration: 18.3 ng/mL
[2]; BXM two doses 10 mg/kg (0 and 12 h), 7.5 h
  Simulated plasma concentration: 17.5 ng/mL
[2]; BXM two doses 10 mg/kg (0 and 12 h), 8 h
  Simulated plasma concentration: 16.7 ng/mL
[2]; BXM two doses 10 mg/kg (0 and 12 h), 8.5 h
  Simulated plasma concentration: 15.8 ng/mL
[2]; BXM two doses 10 mg/kg (0 and 12 h), 9 h
  Simulated plasma concentration: 15.0 ng/mL
[2]; BXM two doses 10 mg/kg (0 and 12 h), 9.5 h
  Simulated plasma concentration: 14.2 ng/mL
[2]; BXM two doses 10 mg/kg (0 and 12 h), 10 h
  Simulated plasma concentration: 13.5 ng/mL
[2]; BXM two doses 10 mg/kg (0 and 12 h), 10.5 h
  Simulated plasma concentration: 12.8 ng/mL
[2]; BXM two doses 10 mg/kg (0 and 12 h), 11 h
  Simulated plasma concentration: 12.1 ng/mL
[2]; BXM two doses 10 mg/kg (0 and 12 h), 11.5 h
  Simulated plasma concentration: 11.5 ng/mL
[2]; BXM two doses 10 mg/kg (0 and 12 h), 12 h (dosing)
  Simulated plasma concentration: 10.9 ng/mL
[2]; BXM two doses 10 mg/kg (0 and 12 h), 12.5 h
  Simulated plasma concentration: 43.5 ng/mL
[2]; BXM two doses 10 mg/kg (0 and 12 h), 13 h
  Simulated plasma concentration: 65.9 ng/mL
[2]; BXM two doses 10 mg/kg (0 and 12 h), 13.5 h
  Simulated plasma concentration: 64.9 ng/mL
[2]; BXM two doses 10 mg/kg (0 and 12 h), 24 h
  Simulated plasma concentration: 13.9 ng/mL
[2]; BXM two doses 10 mg/kg (0 and 12 h), 47.5 h
  Simulated plasma concentration: 1.16 ng/mL
[2]; BXM two doses 10 mg/kg (0 and 12 h), 48 h
  Simulated plasma concentration: 1.10 ng/mL
[2]; BXM two doses 30 mg/kg (0 and 12 h), 2.5 h
  Simulated plasma concentration: 316 ng/mL
[2]; BXM two doses 30 mg/kg (0 and 12 h), 3 h
  Simulated plasma concentration: 292 ng/mL
[2]; BXM two doses 30 mg/kg (0 and 12 h), 3.5 h
  Simulated plasma concentration: 269 ng/mL
[2]; BXM two doses 30 mg/kg (0 and 12 h), 4 h
  Simulated plasma concentration: 248 ng/mL
[2]; BXM two doses 30 mg/kg (0 and 12 h), 4.5 h
  Simulated plasma concentration: 236 ng/mL
[2]; BXM two doses 30 mg/kg (0 and 12 h), 5 h
  Simulated plasma concentration: 224 ng/mL
[2]; BXM two doses 30 mg/kg (0 and 12 h), 5.5 h
  Simulated plasma concentration: 213 ng/mL
[2]; BXM two doses 30 mg/kg (0 and 12 h), 6 h
  Simulated plasma concentration: 202 ng/mL
[2]; BXM two doses 30 mg/kg (0 and 12 h), 6.5 h
  Simulated plasma concentration: 190 ng/mL
[2]; BXM two doses 30 mg/kg (0 and 12 h), 7 h
  Simulated plasma concentration: 179 ng/mL
[2]; BXM two doses 30 mg/kg (0 and 12 h), 7.5 h
  Simulated plasma concentration: 169 ng/mL
[2]; BXM two doses 30 mg/kg (0 and 12 h), 8 h
  Simulated plasma concentration: 159 ng/mL
[2]; BXM two doses 30 mg/kg (0 and 12 h), 8.5 h
  Simulated plasma concentration: 146 ng/mL
[2]; BXM two doses 30 mg/kg (0 and 12 h), 9 h
  Simulated plasma concentration: 134 ng/mL
[2]; BXM two doses 30 mg/kg (0 and 12 h), 9.5 h
  Simulated plasma concentration: 123 ng/mL
[2]; BXM two doses 30 mg/kg (0 and 12 h), 10 h
  Simulated plasma concentration: 112 ng/mL
[2]; BXM two doses 30 mg/kg (0 and 12 h), 10.5 h
  Simulated plasma concentration: 103 ng/mL
[2]; BXM two doses 30 mg/kg (0 and 12 h), 11 h
  Simulated plasma concentration: 94.5 ng/mL
[2]; BXM two doses 30 mg/kg (0 and 12 h), 11.5 h
  Simulated plasma concentration: 86.6 ng/mL
[2]; BXM two doses 30 mg/kg (0 and 12 h), 12 h (dosing)
  Simulated plasma concentration: 79.4 ng/mL
[2]; BXM two doses 30 mg/kg (0 and 12 h), 12.5 h
  Simulated plasma concentration: 208 ng/mL
[2]; BXM two doses 30 mg/kg (0 and 12 h), 13 h
  Simulated plasma concentration: 405 ng/mL
[2]; BXM two doses 30 mg/kg (0 and 12 h), 47.5 h
  Simulated plasma concentration: 1.60 ng/mL
[2]; BXM two doses 30 mg/kg (0 and 12 h), 48 h
  Simulated plasma concentration: 1.47 ng/mL
[2]; [3]
  Ratio of BXA concentration to EC90: × 33.2
  Ratio of BXA concentration to Target concentration: × 2.0
[2]; [4]
  Ratio of BXA concentration to EC90: × 2.6
  Ratio of BXA concentration to Target concentration: × 0.16
[2]; [5]
  Ratio of BXA concentration to EC90: × 213
  Ratio of BXA concentration to Target concentration: × 13.0
[2]; [6]
  Ratio of BXA concentration to EC90: × 3.5
  Ratio of BXA concentration to Target concentration: × 0.21
